Laboratory results published in publication PMC9865363, “Identification of Human UDP-Glucuronosyltransferase Involved in Gypensapogenin C Glucuronidation and Species Differences” (International Journal of Molecular Sciences, 2023).

Columns and labels:
[1] = GPC glucuronidation in human liver microsomes (enzyme kinetics, species comparison); settings: human, human liver microsomes, pH 7.4
[2] = tested on: glucuronidation (GPCG formation); assay: as above; settings: human, human liver microsomes, pH 7.4
[3] = tested on: human liver microsomes (HLMs); assay: as above; settings: 30 min
[4] = GPC glucuronidation in bovine liver microsomes (enzyme kinetics, species comparison); settings: bovine, bovine liver microsomes, pH 7.4
[5] = tested on: glucuronidation (GPCG formation); assay: as above; settings: bovine, bovine liver microsomes, pH 7.4
[6] = tested on: bovine liver microsomes (BLM); assay: as above; settings: 30 min
recombinant human UGT1A4 = molecular target: T1, recombinant human UGT1A4 (Homo sapiens, UniProt P22310); assay: Recombinant human UGT enzyme assay of GPC glucuronidation, UGT1A4; format: in vitro ADME; settings: recombinant UGT1A4 0.1 mg/mL, GPC 1 and 10 μM
T1 construct: purchased Cypex (Scotland, UK)
T1 sequence (P22310 29-534): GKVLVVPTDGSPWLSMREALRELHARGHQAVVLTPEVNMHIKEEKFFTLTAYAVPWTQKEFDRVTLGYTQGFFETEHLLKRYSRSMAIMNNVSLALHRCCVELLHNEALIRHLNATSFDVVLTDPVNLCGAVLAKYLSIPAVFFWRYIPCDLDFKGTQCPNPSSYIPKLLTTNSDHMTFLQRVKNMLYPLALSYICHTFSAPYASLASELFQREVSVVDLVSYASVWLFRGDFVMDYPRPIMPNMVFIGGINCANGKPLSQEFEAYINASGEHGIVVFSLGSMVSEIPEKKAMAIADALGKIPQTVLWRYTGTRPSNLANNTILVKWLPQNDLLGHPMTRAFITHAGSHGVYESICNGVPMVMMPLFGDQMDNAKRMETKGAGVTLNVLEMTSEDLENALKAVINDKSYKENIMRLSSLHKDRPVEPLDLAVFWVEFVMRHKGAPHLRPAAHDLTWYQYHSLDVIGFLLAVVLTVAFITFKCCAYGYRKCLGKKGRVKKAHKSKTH
Procedure: (§1) The glucuronidation incubation system consisted of Tris-HCl buffer (50 mM, pH = 7.4), magnesium chloride (4 mM), alamethicin (12.5 μg/mL), human liver microsomes (0.5 mg/mL), UDPGA (100 mM), and GPC (20 μM).
(§2) The glucuronidation metabolic activity of GPC at two concentration levels (1 and 10 μM) was determined using an incubation system with 10 recombinant human UGT enzymes (UGT1A1, 1A3, 1A4, 1A6, 1A7, 1A8, 1A9, 1A10, 2B7, 2B17) (0.1 mg/mL). The incubation conditions were the same as in Section 4.3, except for the protein concentration of 0.1 mg/mL. Lastly, metabolites were detected using LC–MS/MS.

[7] = GPC glucuronidation in monkey liver microsomes (enzyme kinetics, species comparison); settings: monkey, monkey liver microsomes, pH 7.4
[8] = tested on: glucuronidation (GPCG formation); assay: as above; settings: monkey, monkey liver microsomes, pH 7.4
[9] = tested on: monkey liver microsomes (MkLM); assay: as above; settings: 30 min
[10] = tested on: pig liver microsomes (PLM); assay: GPC glucuronidation in pig liver microsomes (enzyme kinetics, species comparison); settings: 30 min
[11] = as above; settings: minipig, pig, pig liver microsomes, pH 7.4
[12] = tested on: glucuronidation (GPCG formation); assay: as above; settings: pig, pig liver microsomes, pH 7.4
[13] = GPC glucuronidation in dog liver microsomes (enzyme kinetics, species comparison); settings: Beagle, dog, dog liver microsomes, pH 7.4
[14] = tested on: glucuronidation (GPCG formation); assay: as above; settings: Beagle, dog, dog liver microsomes, pH 7.4
[15] = tested on: dog liver microsomes (DLM); assay: as above; settings: 30 min
[16] = GPC glucuronidation in rabbit liver microsomes (enzyme kinetics, species comparison); settings: New Zealand, rabbit, rabbit liver microsomes, pH 7.4
[17] = tested on: glucuronidation (GPCG formation); assay: as above; settings: New Zealand, rabbit, rabbit liver microsomes, pH 7.4
[18] = tested on: rabbit liver microsomes (RaLM); assay: as above; settings: RaLMs 0.2 mg/mL, GPC 2–200 μM, 30 min, substrate inhibition fit
[19] = GPC glucuronidation in mouse liver microsomes (enzyme kinetics, species comparison); settings: ICR/CD-1, mouse, mouse liver microsomes, pH 7.4
[20] = tested on: glucuronidation (GPCG formation); assay: as above; settings: ICR/CD-1, mouse, mouse liver microsomes, pH 7.4
[21] = tested on: mouse liver microsomes (MLM); assay: as above; settings: MLMs 0.2 mg/mL, GPC 2–200 μM, 30 min, substrate inhibition fit
[22] = tested on: recombinant human UGT1A1, 1A3, 1A6, 1A7, 1A8, 1A9, 1A10, 2B7, and 2B17; assay: Recombinant human UGT enzyme assay of GPC glucuronidation, remaining isoenzymes; format: in vitro ADME; settings: remaining recombinant UGT isoenzymes 0.1 mg/mL, GPC 1 and 10 μM
Procedure: as §1, §2

[23] = GPC glucuronidation in rat liver microsomes (enzyme kinetics, species comparison); settings: Sprague-Dawley, rat, rat liver microsomes, pH 7.4
[24] = tested on: glucuronidation (GPCG formation); assay: as above; settings: Sprague-Dawley, rat, rat liver microsomes, pH 7.4
[25] = tested on: rat liver microsomes (RLM); assay: as above; settings: 30 min
[26] = tested on: GPC glucuronidation in human liver microsomes; assay: Chemical inhibition of GPC glucuronidation in human liver microsomes; settings: GPC 15 μM, HLMs 0.2 mg/mL, 30 min
Procedure: (§3) The glucuronidation incubation system consisted of Tris-HCl buffer (50 mM, pH = 7.4), magnesium chloride (4 mM), alamethicin (12.5 μg/mL), human liver microsomes (0.5 mg/mL), UDPGA (100 mM), and GPC (20 μM). […] The incubation system was first preincubated at 37 °C for 3 min before adding UDPGA to initiate the reaction. The reaction was terminated […] with the addition of an equal volume of iced acetonitrile (containing 30 μM PPT). After vortexing for 3 min, the supernatant obtained was centrifuged at 14,300 rpm for 15 min at 4 °C and used for LC–MS/MS analysis.
(§4) Glucuronidation metabolism of GPC in HLMs was inhibited using hecogenin, phenylbutazone, fluconazole, and magnolol. The concentrations of the four inhibitors were set to 1, 10, 50, and 200 μM, and the concentration of GPC was set to 15 μM. The incubation time and protein concentration were […], respectively. All the rest of the incubation conditions were as in Section 4.3. The incubation without inhibitor but with the same volume of DMSO was set to be the solvent control.

GPC glucuronidation = assay: as above; settings: human, pH 7.4
Procedure: as §3, §4

[27] = inhibitor 1, 10, 50, and 200 μM

CC(C)=C1CC=C([C@H]2CC[C@]3(C)[C@@H]2CC[C@@H]2[C@@]4(C)CC[C@H](O)C(C)(C)[C@@H]4CC[C@]23C)C1=O [GPC, Gypensapogenin C]
microsomal CLint [1]: 27 µL/min/mg | Km at 30 min [2]: 15.4 ± 5.26 µM | Vmax ([3]; HLMs 0.2 mg/mL, GPC 2–200 μM, substrate inhibition fit): 0.42 ± 0.09 nmol/min/mg | GPC glucuronidation product generation (semiquantitative, peak area ratio) ([3]; human liver microsomes 0.2 mg/mL, GPC 10 and 50 μM): Trace amounts | microsomal CLint [4]: 259 µL/min/mg | Km at 30 min [5]: 12.2 ± 5.16 µM | Vmax ([6]; BLMs 0.2 mg/mL, GPC 2–200 μM, substrate inhibition fit): 3.17 ± 0.89 nmol/min/mg | GPC glucuronidation product generation (semiquantitative, peak area ratio) ([6]; bovine liver microsomes 0.2 mg/mL, GPC 10 and 50 μM): Trace amounts | catalytic activity for GPC glucuronidation (recombinant human UGT1A4): highest catalytic activity | microsomal CLint [7]: 77 µL/min/mg | Km at 30 min [8]: 107 ± 73.2 µM | Vmax ([9]; MkLMs 0.2 mg/mL, GPC 2–200 μM, substrate inhibition fit): 8.29 ± 4.69 nmol/min/mg | GPC glucuronidation product generation (semiquantitative, peak area ratio) ([9]; monkey liver microsomes 0.2 mg/mL, GPC 10 and 50 μM): Trace amounts | Vmax ([10]; PLMs 0.2 mg/mL, GPC 2–200 μM, substrate inhibition fit): 1.41 ± 0.18 nmol/min/mg | GPC glucuronidation product generation (semiquantitative, peak area ratio) ([10]; pig liver microsomes 0.2 mg/mL, GPC 10 and 50 μM): Trace amounts | microsomal CLint [11]: 147 µL/min/mg | Km at 30 min [12]: 9.58 ± 2.32 µM | microsomal CLint [13]: 2120 µL/min/mg | Km at 30 min [14]: 9.56 ± 2.83 µM | Vmax ([15]; DLMs 0.2 mg/mL, GPC 2–200 μM, substrate inhibition fit): 20.28 ± 2.57 nmol/min/mg | GPC glucuronidation product generation (semiquantitative, peak area ratio) ([15]; dog liver microsomes 0.2 mg/mL, GPC 10 and 50 μM): highest amounts | microsomal CLint [16]: 304 µL/min/mg | Km at 30 min [17]: 16.2 ± 3.77 µM | Vmax [18]: 4.92 ± 0.57 nmol/min/mg | microsomal CLint [19]: 690 µL/min/mg | Km at 30 min [20]: 10 ± 2.1 µM | Vmax [21]: 6.93 ± 0.69 nmol/min/mg | catalytic activity for GPC glucuronidation [22]: none of the remaining UGT isoenzymes showed activity | microsomal CLint [23]: 40 µL/min/mg | Km at 30 min [24]: 94.1 ± 89.8 µM | Vmax ([25]; RLMs 0.2 mg/mL, GPC 2–200 μM, substrate inhibition fit): 3.80 ± 3.01 nmol/min/mg | GPC glucuronidation product generation (semiquantitative, peak area ratio) ([25]; rat liver microsomes 0.2 mg/mL, GPC 10 and 50 μM): Trace amounts

hecogenin
inhibition of GPC glucuronidation ([26]; inhibitor 1 μM): more than 40% | inhibition of GPC glucuronidation ([26]; inhibitor 10 μM): 70%

OC(Cn1cncn1)(Cn1cncn1)c1ccc(F)cc1F [fluconazole]
inhibition of GPC glucuronidation (in words) [26, 27]: Neither fluconazole nor phenylbutazone inhibited

CCCCC1C(=O)N(c2ccccc2)N(c2ccccc2)C1=O [phenylbutazone]
inhibition of GPC glucuronidation (in words) [26, 27]: Neither fluconazole nor phenylbutazone inhibited

C=CCc1ccc(O)c(-c2cc(CC=C)ccc2O)c1 [Magnolol, magnolol]
inhibition at 30 min, 200 μM (GPC glucuronidation): 50% | inhibition of GPC glucuronidation (in words) ([26]; inhibitor 1–50 μM): insignificant inhibition
